From patent US20100010035A1, “Novel Dual Action Receptors Antagonists (Dara) at the Ati and Eta Receptors” (priority 2006, published 2010)

Experiments:
human ETA receptor = target: T1, human ETA receptor (Homo sapiens, UniProt P25101); assay: ETA functional assay (FLIPR Ca efflux, Endothelin-1 at EC80); format: cell-based; conditions: CHO cells over-expressing full length human ETA receptor; Endothelin-1 as agonist at EC80
T1 construct: CHO cell stably over-expressing the full length human ETA receptor; expressed in transfected cells
T1 sequence (P25101 21-427): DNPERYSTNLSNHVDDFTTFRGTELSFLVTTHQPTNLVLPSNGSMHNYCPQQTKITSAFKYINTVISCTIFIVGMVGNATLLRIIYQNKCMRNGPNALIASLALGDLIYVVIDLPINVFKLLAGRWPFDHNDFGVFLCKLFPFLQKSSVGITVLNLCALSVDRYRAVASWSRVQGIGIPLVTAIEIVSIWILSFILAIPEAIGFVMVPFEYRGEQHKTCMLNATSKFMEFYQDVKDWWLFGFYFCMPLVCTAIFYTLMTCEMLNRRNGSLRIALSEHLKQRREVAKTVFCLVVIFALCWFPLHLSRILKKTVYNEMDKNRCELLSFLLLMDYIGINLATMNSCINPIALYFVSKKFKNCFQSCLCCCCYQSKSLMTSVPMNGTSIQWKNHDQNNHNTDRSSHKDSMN
Procedure: (§1) CHO cell stably over-expressing the full length human ETA receptor was cultured in DMEM (Gibco) with 10% FCS (Hyclone) and selection maintained using 0.5 mg/ml G418 (Gibco). Cell at 70% confluence were trypsnised, resuspended in media and counted. 20,000 cells/well were plated into black polystyrene 384-well plates with transparent bottoms and allowed 16 hours to adhere. The cells were loaded with Flou-4 (TEFLABS, USA) dye in BSS (Gibco) for 1 hour and then washed in HBSS and 0.6 μl of diluted compounds in DMSO added to the cells in 30 μl of HBSS in Multimek liquid handling system (Beckman, USA). The cells were then placed in the Fluorometric Imaging Plate Readers (FLIPR, Molecular Devices, USA) and 20 μl of Endothelin-1 peptide as agonist in HBSS (at EC80) was added in the instrument.
(§2) The Ca efflux was followed for 2 mins and the maximum height of the peak was measured at various compound concentrations and plotted according to the equation
(§3) and IC50 estimated wherein A is the bottom plateau of the curve i.e. the final minimum y value B is the top of the plateau of the curve i.e. the final maximum y value C is the x value at the middle of the curve. This represents the log EC50 value when A+B=100 D is the slope factor. x is the original known x values. y is the original known y values.

human AT1 receptor = target: T2, human AT1 receptor (Homo sapiens, UniProt P30556); assay: AT1 functional assay (FLIPR Ca efflux, Angiotensin-II at EC80); format: cell-based; conditions: CHO cells over-expressing full length human AT1 receptor; Angiotensin-II as agonist at EC80
T2 construct: CHO cell stably over-expressing the full length human AT1 receptor; expressed in transfected cells
T2 sequence (P30556 1-359): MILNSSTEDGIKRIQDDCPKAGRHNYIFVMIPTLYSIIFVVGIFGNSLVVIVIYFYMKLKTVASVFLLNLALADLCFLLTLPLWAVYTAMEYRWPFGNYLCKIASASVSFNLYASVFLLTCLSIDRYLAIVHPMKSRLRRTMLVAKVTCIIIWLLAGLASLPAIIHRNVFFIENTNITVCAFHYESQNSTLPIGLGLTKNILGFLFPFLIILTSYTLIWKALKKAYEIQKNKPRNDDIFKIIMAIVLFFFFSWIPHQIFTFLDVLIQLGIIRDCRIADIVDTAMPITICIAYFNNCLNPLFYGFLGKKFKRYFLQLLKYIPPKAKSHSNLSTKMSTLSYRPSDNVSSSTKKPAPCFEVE
Procedure: as §1, with “human AT1” for “human ETA”, “in HBSS” for “in BSS”, “30 μd” for “30 μl”, “of Angiotensin-II” for “of Endothelin-1”, “agonist (at EC80)” for “agonist”, “HBSS” for “HBSS (at EC80)”
as §2, §3

SMILES	IC50 (human ETA receptor)	IC50 (human AT1 receptor)
Cc1cc2c(ccc(=O)n2Cc2ccc(-c3cc(C)sc3S(=O)(=O)Nc3noc(C)c3C)c(OCC(C)C)c2)c(C)n1 [Example 36, 3-[4-(5,7-Dimethyl-2-oxo-2H-[1,6]naphthyridin-1-ylmethyl)-2-isobutoxy-phenyl]-5-methyl-thiophene-2-sulfonic acid (4,5-dimethyl-isoxazol-3-yl)-amide]	758 nM	58.3 nM
CCc1cc2c(ccc(=O)n2Cc2ccc(-c3cc(C)sc3S(=O)(=O)Nc3noc(C)c3C)c(F)c2)c(CC)n1 [Example 35, 3-[4-(5,7-Diethyl-2-oxo-2H-[1,6]naphthyridin-1-ylmethyl)-2-fluoro-phenyl]-5-methyl-thiophene-2-sulfonic acid (4,5-dimethyl-isoxazol-3-yl)-amide]	2570 nM	27.6 nM
CCOCc1cc(Cn2nc(-c3cccs3)c3c(C)nc(CC)cc32)ccc1-c1cc(C)sc1S(=O)(=O)Nc1onc(C)c1C [Example 27, 3-[2-Ethoxymethyl-4-(6-ethyl-4-methyl-3-thiophen-2-yl-pyrazolo[4,3-c]pyridin-1-ylmethyl)-phenyl]-5-methyl-thiophene-2-sulfonic acid (3,4-dimethyl-isoxazol-5-yl)-amide]	646 nM	15.6 nM
CCc1cc2c(c(C)n1)c(-c1ccccc1)nn2Cc1ccc(-c2ccsc2S(=O)(=O)Nc2ncc(C)nc2OC)cc1 [Example 34]	7040 nM	189 nM
Cc1cc2c(c(C)n1)c(-c1ccc(Cl)cc1)nn2Cc1ccc(-c2cc(C)sc2S(=O)(=O)Nc2noc(C)c2C)c(C)c1 [Example 37, 3-{4-[3-(4-Chloro-phenyl)-4,6-dimethyl-pyrazolo[4,3-c]pyridin-1-ylmethyl]-2-methyl-phenyl}-5-methyl-thiophene-2-sulfonic acid (4,5-dimethyl-isoxazol-3-yl)-amide]	407 nM	153 nM
CCc1cc2c(c(Sc3ccccc3)cc(=O)n2Cc2ccc(-c3ccsc3S(=O)(=O)Nc3noc(C)c3C)cc2)c(CC)n1 [Example 3, 3-[4-(5,7-diethyl-2-oxo-4-phenylsulphanyl-2H-[1,6]naphthyridin-1 ylmethyl)-phenyl]-thiophene-2-sulphonic acid(4,5-dimethyl-isoxazol-3-yl)-amide]	2920 nM	125 nM
CCc1cc(OCc2ccc(-c3ccsc3S(=O)(=O)Nc3noc(C)c3C)cc2)c(C(=O)c2ccccc2)c(C)n1 [Example 4, 3-[4-(3-Benzoyl-6-ethyl-2-methyl-pyridin-4-yloxymethyl)-phenyl]-thiophene-2-sulphonic acid (4,5-dimethyl-isoxazol-3-yl)-amide]	6200 nM	29 nM
CCOCc1cc(Cn2nc(-c3cccs3)c3c(C)nc(CC)cc32)ccc1-c1cc(C)sc1S(=O)(=O)Nc1noc(C)c1C [Example 22, 3-[2-Ethoxymethyl-4-(6-ethyl-4-methyl-3-thiophen-2-yl-pyrazolo[4,3-c]pyridin-1-ylmethyl)-phenyl]-5-methyl-thiophene-2-sulfonic acid (4,5-dimethyl-isoxazol-3-yl)-amide]	454 nM	25.2 nM
COCc1cc(Cn2nc(-c3cccs3)c3c(C)nc(C)cc32)ccc1-c1cc(C)sc1S(=O)(=O)Nc1noc(C)c1C [Example 21, 3-[4-(4,6-dimethyl-3-thiophen-2-yl-pyrazolo[4,3-c]pyridin-1-ylmethyl)-2-methoxymethyl-phenyl]-5-methyl-thiophene-2-sulfonic acid (4,5-dimethyl-isoxazol-3-yl)-amide]	464 nM	7.47 nM
CCc1nc(C)cc2c1c(CC)nn2Cc1ccc(-c2cc(C)sc2S(=O)(=O)Nc2noc(C)c2C)c(COC)c1 [Example 38, 3-[4-(3,4-Diethyl-6-methyl-pyrazolo[4,3-c]pyridin-1-ylmethyl)-2-methoxymethyl-phenyl]-5-methyl-thiophene-2-sulfonic acid (4,5-dimethyl-isoxazol-3-yl)-amide]	1040 nM	17.2 nM
CCOc1cc(=O)n(Cc2ccc(-c3cc(C)sc3S(=O)(=O)Nc3noc(C)c3C)c(C)c2)c2cc(CC)nc(CC)c12 [Example 39, 3-[4-(4-Ethoxy-5,7-diethyl-2-oxo-2H-[1,6]naphthyridin-1-ylmethyl)-2-methyl-phenyl]-5-methyl-thiophene-2-sulfonic acid (4,5-dimethyl-isoxazol-3-yl)-amide]	781 nM	25.1 nM

Further lines, results first:

IC50 (human ETA receptor)	IC50 (human AT1 receptor)	SMILES
3320 nM	18.9 nM	CCc1cc2c(ccc(=O)n2Cc2ccc(-c3cc(C)sc3S(=O)(=O)Nc3onc(C)c3C)c(C)c2)c(CC)n1 [Example 30, 3-[4-(5,7-diethyl-2-oxo-2H-[1,6]naphthyridin-1-ylmethyl)-2-methyl-phenyl]-5-methyl-thiophene-2-sulfonic acid (3,4-dimethyl-isoxazol-5-yl)-amide]
503 nM	11.4 nM	CCOCc1cc(Cn2nc(Cn3nc(C)cc3C)c3c(C)nc(C)cc32)ccc1-c1cc(C)sc1S(=O)(=O)Nc1noc(C)c1C [Example 15, 3-{4-[3-(3,5-Dimethyl-pyrazol-1-ylmethyl)-4,6-dimethyl-pyrazolo[4,3-c]pyridin-1-ylmethyl]2-ethoxymethyl-phenyl}-5-methyl-thiophene-2-sulphonic acid (4,5-dimethyl-isoxazol-3-yl)-amide]
562 nM	22.9 nM	CCOCc1cc(Cn2nc(C)c3c(C)nc(CC)cc32)ccc1-c1cc(C)sc1S(=O)(=O)Nc1noc(C)c1C [Example 6, 3-[2-Ethoxymethyl-4-(6-ethyl-3,4-dimethyl-pyrazolo[4,3-c]pyridine-1-ylmethyl)-phenyl]-5-methyl-thiophene-2-sulphonic acid(4,5-dimethyl-isoxazol-3-yl)-amide]
2870 nM	20.8 nM	CCc1cc2c(c(Oc3ccccc3)cc(=O)n2Cc2ccc(-c3ccsc3S(=O)(=O)Nc3noc(C)c3C)cc2)c(CC)n1 [Example 8, 3-[4-(5,7-diethyl-2-oxo-4-phenoxy-2H-[1,6]naphthyridin-1-ylmethyl)-phenyl]-thiophene-2-sulphonic acid(4,5-dimethyl-isoxazol-3-yl)-amide]
292 nM	15.9 nM	Cc1cc2c(cc(-c3ccccc3)c(=O)n2Cc2ccc(-c3cc(C)sc3S(=O)(=O)Nc3noc(C)c3C)c(C)c2)c(C)n1 [Example 29, 3-[4-(5,7-dimethyl-2-oxo-3-phenyl-2H-[1,6]naphthyridin-1-ylmethyl)-2-methyl-phenyl]-5-methyl-thiophene-2-sulfonic acid (4,5-dimethyl-isoxazol-3-yl)-amide]
1890 nM	27.4 nM	CCc1cc2c(c(C)n1)c(-c1ccc(OC)cc1)nn2Cc1ccc(-c2cc(C)sc2S(=O)(=O)Nc2noc(C)c2C)c(C)c1 [Example 24, 3-{4-[6-Ethyl-3-(4-methoxy-phenyl)-4-methyl-pyrazolo[4,3-c]pyridin-1-ylmethyl]-2-methyl-phenyl}-5-methyl-thiophene-2-sulfonic acid (4,5-dimethyl-isoxazol-3-yl)-amide]
18900 nM	117 nM	CCOc1nc2cccc(C(=O)O)c2n1Cc1ccc(-c2cc(C)sc2S(=O)(=O)Nc2onc(C)c2C)cc1 [Example 26, 3-{4-[2-(3,4-dimethyl-isoxazol-5-ylsulfamoyl)-5-methyl-thiophen-3-yl]-benzyl}-2-ethoxy-3H-benzoimidazole-4-carboxylic acid]
